Experimental data from PubChem BioAssay AID2060610 (Molecular Pharmacology Branch, DTP, NCI, 2025).
pIC50: −log10 of the molar value.

Test system: 616215-338-R-J1-PDC complex spheroids, viability % test/control
Assay: Anticancer human tumor 616215-338-R-J1-PDC patient-derived colon adenocarcinoma cell line growth inhibition [CLK]
Conditions: for pIC50: curve of first compound; for viability, T/C: stronger effect = lower value
Description: A high-throughput screen of multi-cell type tumor spheroids was designed to identify active combinations of […] and targeted small molecules. Complex spheroids include a stromal component modeled by human endothelial cells (HUVEC) and fibroblasts modeled by human mesenchymal stem cells (MSCs). The concentration ranges selected for each drug and investigational agent were based upon clinically achievable concentrations if the clinical Cmax of the agent was known.
Compounds. The drugs and investigational agents: cirtuvivint (SM08502; NSC835563), CC-671 (NSC850746), vemurafenib (NSC761431), tapotoclax (NSC804041), sotorasib (NSC818433), adagrasib (NSC831453), MRTX-1133 (NSC836407), BAY2416964 (NSC825713), copanlisib (NSC816437), inavolisib (NSC800729), abemaciclib (NSC768073), osimertinib (NSC779217), entinostat (NSC756642), eltanexor (KPT-8602, NSC794443), venetoclax (NSC766270), ceralasertib (NSC777638), bortezomib (NSC756655), olaparib (NSC753686), talazoparib (NSC767125), alisertib (NSC759677), peposertib (NSC802822), gemcitabine (NSC613327), 5-fluorouracil (NSC19893), SN-38 (NSC673596), oxaliplatin (NSC266046), paclitaxel (NSC125973), and doxorubicin (NSC123127), were obtained from the National Cancer Institute (NCI) Developmental Therapeutics Program Chemical Repository. The FDA-approved anticancer drug set is available from the Developmental Therapeutics Program at https://dtp.cancer.gov/organization/dscb/obtaining/available plates.htm. […] The stock solutions were prepared in dimethyl sulfoxide (DMSO, Sigma-Aldrich, St. Louis, MO, cat. D2650), except for the platinum complexes which were prepared in saline (Quality Biological, Gaithersburg, MD, cat. 114-055-101), at 800-fold the tested concentration and stored at -70 degrees C prior to their use. All drugs and investigational agents were tested over a range starting from a high concentration at or near the clinical Cmax and decreasing in half-log increments. If the clinical Cmax for an agent had not been determined, the highest concentration tested was 10 microM.
Cell Culture. All cells were maintained in an incubator at 37 degrees C and 5% CO2 with 95% humidity. The PDC lines were cultured according to standard operating procedures established by the NCI PDMR. Briefly, all PDCs were thawed and cultured in Matrigel-coated flasks prepared with a working solution of 1X Ham's F-12 nutrient mix, without supplementation (Invitrogen, Waltham, MA, cat. 11765054), 100 U/mL penicillin-streptomycin (Invitrogen, cat. 15140122), and 2.5% Matrigel (Corning Inc., Corning, NY, cat. 354248) for the first three passages. The 947758-054-R-J2-PDC line was cultured in 6B/Colon 1A media, which includes advanced DMEM/F-12 (Thermo Fisher Scientific, cat. 12634028), 10 mM HEPES (Thermo Fisher Scientific, cat. 15630080), 1X GlutaMAX supplement (Thermo Fisher Scientific, cat. 35050061), 0.1 mg/mL primocin (InvivoGen, cat. ant-pm-2), 10% defined fetal bovine serum, heat inactivated (HyClone Laboratories Inc., cat. SH30070.03HI), 1.25 mM N-Acetyl-L-cysteine (Sigma-Aldrich, cat. A9165), 10 mM nicotinamide (Sigma-Aldrich, cat. N0636), 1X B-27 supplement (Thermo Fisher Scientific, cat. 17504044), 1X N-2 supplement (Thermo Fisher Scientific, cat. 17502048), and 10 microM Y-27632 dihydrochloride (Tocris Bioscience, cat. 1254). The 876862-298-R-J1-PDC was cultured in 6E media, which includes all 6B/Colon 1A media components plus 50% L-WRN conditioned media (ATCC, cat. CRL-3276), 50 ng/mL recombinant human EGF recombinant protein (hEGF; Thermo Fisher Scientific, cat. PHG0311), 10 ng/mL recombinant human fibroblast growth factor 10 (hGFG-10; PeproTech, cat. 100-26), 1 ng/mL recombinant human fibroblast growth factor 2 (hFGF-2; PeproTech, cat. 100-18B), and 1 µM prostaglandin E2 (PGE2; Tocris, cat. 2296). The 227483-062-R1-J1-PDC line was cultured in Panc media, containing all 6E components except hFGF-2, with the addition of 500 nM SB-431542 (Selleckchem, cat. S1067) and 10 nM gastrin (Tocris, cat. 3006). […]

[1] = second compound 0.0316 µM, first compound 0.0316 µM
[2] = second compound 0.0316 µM, first compound 0.1 µM
[3] = second compound 0.0316 µM, first compound 0.316 µM
[4] = second compound 0.0316 µM, first compound 1 µM
[5] = second compound 0.0316 µM, first compound 3.16 µM
[6] = second compound 0.0316 µM, first compound 10 µM
[7] = second compound 0.1 µM, first compound 0.0316 µM
[8] = second compound 0.1 µM, first compound 0.1 µM
[9] = second compound 0.1 µM, first compound 0.316 µM
[10] = second compound 0.1 µM, first compound 1 µM
[11] = second compound 0.1 µM, first compound 3.16 µM
[12] = second compound 0.1 µM, first compound 10 µM
[13] = second compound 0.316 µM, first compound 0.0316 µM
[14] = second compound 0.316 µM, first compound 0.1 µM
[15] = second compound 0.316 µM, first compound 0.316 µM
[16] = second compound 0.316 µM, first compound 1 µM
[17] = second compound 0.316 µM, first compound 3.16 µM
[18] = second compound 0.316 µM, first compound 10 µM
[19] = second compound 1 µM, first compound 0.0316 µM
[20] = second compound 1 µM, first compound 0.1 µM
[21] = second compound 1 µM, first compound 0.316 µM
[22] = second compound 1 µM, first compound 1 µM
[23] = second compound 1 µM, first compound 3.16 µM
[24] = second compound 1 µM, first compound 10 µM
[25] = second compound 3.16 µM, first compound 0.0316 µM
[26] = second compound 3.16 µM, first compound 0.1 µM
[27] = second compound 3.16 µM, first compound 0.316 µM
[28] = second compound 3.16 µM, first compound 1 µM
[29] = second compound 3.16 µM, first compound 3.16 µM
[30] = second compound 3.16 µM, first compound 10 µM
[31] = second compound 10 µM, first compound 0.0316 µM
[32] = second compound 10 µM, first compound 0.1 µM
[33] = second compound 10 µM, first compound 0.316 µM
[34] = second compound 10 µM, first compound 1 µM
[35] = second compound 10 µM, first compound 3.16 µM
[36] = second compound 10 µM, first compound 10 µM
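Note: spheroids exposed to agents for 7 days.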
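Throughout, for viability, T/C: 100% = DMSO vehicle wells.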

Structure (SMILES): C#Cc1c(F)ccc2cc(O)cc(-c3ncc4c(N5CC6CCC(C5)N6)nc(OCC56CCCN5CC(F)C6)nc4c3F)c12 (centres undefined) + CN1CCN(c2cc(C(=O)Nc3cc4cc(-c5cnn(C)c5)ccc4cn3)ccn2)CC1
- pIC50 (second compound 0.0316 µM): < 5.00
- pIC50 (second compound 0.1 µM): < 5.00
- pIC50 (second compound 0.316 µM): > 7.50
- pIC50 (second compound 1 µM): > 7.50
- pIC50 (second compound 3.16 µM): > 7.50
- pIC50 (second compound 10 µM): > 7.50
- viability, T/C [1]: 93.7%
- viability, T/C [2]: 91.2%
- viability, T/C [3]: 109%
- viability, T/C [4]: 102%
- viability, T/C [5]: 106%
- viability, T/C [6]: 99.1%
- viability, T/C [7]: 101%
- viability, T/C [8]: 103%
- viability, T/C [9]: 94.7%
- viability, T/C [10]: 101%
- viability, T/C [11]: 102%
- viability, T/C [12]: 74.7%
- viability, T/C [13]: 36.2%
- viability, T/C [14]: 38.8%
- viability, T/C [15]: 30%
- viability, T/C [16]: 33.3%
- viability, T/C [17]: 24.7%
- viability, T/C [18]: 18.8%
- viability, T/C [19]: 0.17%
- viability, T/C [20]: 0.82%
- viability, T/C [21]: 0.2%
- viability, T/C [22]: 0.18%
- viability, T/C [23]: 0.17%
- viability, T/C [24]: 0.71%
- viability, T/C [25]: 0.13%
- viability, T/C [26]: 2.81%
- viability, T/C [27]: 0.12%
- viability, T/C [28]: 0.12%
- viability, T/C [29]: 0.13%
- viability, T/C [30]: 3.3%
- viability, T/C [31]: 0.18%
- viability, T/C [32]: 1.06%
- viability, T/C [33]: 0.16%
- viability, T/C [34]: 0.18%
- viability, T/C [35]: 0.18%
- viability, T/C [36]: 2.17%

Structure (SMILES): CC(CO)NC(=O)c1cc(-c2ccc(Cl)cc2)nn(-c2cnn(C)c2)c1=O (centres undefined) + CN1CCN(c2cc(C(=O)Nc3cc4cc(-c5cnn(C)c5)ccc4cn3)ccn2)CC1
- pIC50 (second compound 0.0316 µM): < 5.00
- pIC50 (second compound 0.1 µM): < 5.00
- pIC50 (second compound 0.316 µM): > 7.50
- pIC50 (second compound 1 µM): > 7.50
- pIC50 (second compound 3.16 µM): > 7.50
- pIC50 (second compound 10 µM): > 7.50
- viability, T/C [1]: 104%
- viability, T/C [2]: 89.5%
- viability, T/C [3]: 91.5%
- viability, T/C [4]: 91.6%
- viability, T/C [5]: 93%
- viability, T/C [6]: 100%
- viability, T/C [7]: 94.7%
- viability, T/C [8]: 108%
- viability, T/C [9]: 90.6%
- viability, T/C [10]: 93.6%
- viability, T/C [11]: 97.3%
- viability, T/C [12]: 85.7%
- viability, T/C [13]: 31.3%
- viability, T/C [14]: 41.5%
- viability, T/C [15]: 26.3%
- viability, T/C [16]: 27.7%
- viability, T/C [17]: 33.1%
- viability, T/C [18]: 32.4%
- viability, T/C [19]: 0.18%
- viability, T/C [20]: 0.19%
- viability, T/C [21]: 0.23%
- viability, T/C [22]: 0.14%
- viability, T/C [23]: 0.57%
- viability, T/C [24]: 1.49%
- viability, T/C [25]: 0.15%
- viability, T/C [26]: 0.42%
- viability, T/C [27]: 0.16%
- viability, T/C [28]: 1.94%
- viability, T/C [29]: 2.32%
- viability, T/C [30]: 0.14%
- viability, T/C [31]: 1.31%
- viability, T/C [32]: 0.25%
- viability, T/C [33]: 0.22%
- viability, T/C [34]: 0.24%
- viability, T/C [35]: 1.28%
- viability, T/C [36]: 0.23%
